Measured values reported in patent US5504091A, “Biotin esters of rapamycin” (American Home Products Corporation, priority 1994, dated 1996).
Read-outs that look alike come from different tables or passages of the source.

Tests used:
[1] = test system: Streptavidin; experiment: BIAcore binding of the compound of Example 3 to streptavidin conjugated matrix; conditions: 2.5 mM injected
[2] = test system: T-cell proliferation (cells from the thymus of normal C3H mice); experiment: comitogen-induced thymocyte proliferation procedure (LAF); type: cell-based; conditions: for inhibition at 0.0001 µM / inhibition at 0.001 µM / inhibition at 0.003 µM / inhibition at 0.01 µM / inhibition at 1 µM / IC50: Mus musculus, T-cell; for inhibition at 0.0001 µM: 0.1 nM (so in the source); for inhibition at 0.001 µM: 1 nM; for inhibition at 0.003 µM: 3 nM; for inhibition at 0.01 µM: 10 nM; for ratio compared to rapamycin: >1 = greater inhibition than rapamycin
Description: Immunosuppressive activity for a representative compound of this invention was evaluated in an in vitro standard pharmacological test procedure to measure the inhibition of lymphocyte proliferation (LAF).
The comitogen-induced thymocyte proliferation procedure (LAF) was used as an in vitro measure of the immunosuppressive effects of representative compounds. Briefly, cells from the thymus of normal C3H mice are cultured for 72 hours with PHA and IL-1 and pulsed with tritiated thymidine during the last six hours. Cells are cultured with and without various concentrations of rapamycin, cyclosporin A, or test compound. Cells are harvested and incorporated radioactivity is determined. Inhibition of lymphoproliferation is assessed as percent change in counts per minute from non-drug treated controls. For each compound evaluated, rapamycin was also evaluated for the purpose of comparison. An IC50 was obtained for each test compound as well as for rapamycin. […] The results are also expressed as a ratio compared to rapamycin. A positive ratio indicates immunosuppressive activity. […] Calculation of the ratio is shown below. [formula]

[3] = test system: RAP-42-OVAF2#1MoAb; experiment: Fluorescent Polarization Immunoassay (FPIA), tracer with antibody; type: binding
Source text: (§1) The hybridoma cell line in P4G1 was cloned by limiting dilution and is designated as hybridoma cell line, RAP-42-OVAF2 #1hc-. The hybridoma cell line, RAP-42-OVAF2 #1hc, was deposited under the terms of the Budapest Treaty with the American Type Culture Collection (ATCC) of 12301 Parklawn Drive, Rockville, Md., 20852, U.S.A., on Mar. 10, 1994, and was granted accession number HB 11568. […] The ring opened rapamycin-specific antibody, designated as RAP-42-OVAF2 #1MoAb, was isolated and purified using conventional methodology.

[4] = test system: FKBP12; experiment: Fluorescent Polarization Immunoassay (FPIA), tracer with FKBP12; type: binding
Source text: as §1

[5] = Fluorescent Polarization Immunoassay (FPIA), tracer background
Source text: as §1

[6] = test system: rapamycin specific antibody; experiment: competitive inhibition ELISA, binding of the compound of Example 3 to rapamycin specific antibody (Table 2); conditions: for OD: compound of Example 3 0.17 μM, 492 nm
Description: The compound of Example 3 was used as a representative compound of this invention. Microtiter plates (Immulon I) were coated overnight with 100 μl of goat anti-mouse antibody (10 μg/ml in 10 mM potassium phosphate buffer, pH 7.2) at 4° C. The plates were flicked and blocked with 100 μl of 1% bovine sera albumin in phosphate buffered saline overnight at 4° C. After flicking and washing the plates three times with 0.2×PBS containing 0.02% Triton X-100 and 0.004% thimerosal, rapamycin specific antibody (100 μl of 1 μg/ml) was added to each well and incubated at room temperature for 1-4 hour. After flicking and washing the plates three times with 0.2×PBS containing 0.02% Triton X- 100 and 0.004% thimerosal, the compound of Example 3 (100 μl, 0.17 μM) in the presence or absence of various concentrations of rapamycin was added and incubated for 1 hour. After flicking and washing the plates three times with 0.2×PBS containing 0.02% Triton X-100 and 0.004% thimerosal, streptavidin conjugated to horseradish peroxidase (100 μl, 0.2 μg/ml) was incubated at room temperature for 1 hour in the dark. After flicking and washing the plates three times with 0.2×PBS containing 0.02% Triton X-100 and 0.004% thimerosal, OPD substrate was added and the plates were incubated covered for 15 min. at room temperature in the dark. The optical density was read on a spectrophotometer at 492 nm.

[7] = test system: experimental allergic encephalomyelitis model; conditions: model for multiple sclerosis; Martel et al.; cited from earlier work
[8] = test system: RAP-42-OVAF2#1MoAb; experiment: FPIA competition of the binding between the antibody and A3 tracer
Source text: as §1

[9] = target: glutathione S-transferase-FK506 binding protein (GST-FKBP) (Homo sapiens, UniProt P62942); experiment: Rapamycin Competitive Binding Assay using the Compound of Example 3, receptor based (Table 3); conditions: compound of Example 3 50 ng/ml, 450 nm
Description: The following is an example of the use of the compounds of this invention in a receptor based assay to measure rapamycin levels using a rapamycin-binding protein and the compound of Example 3 as the ligand. Wells of microtiter plates were coated with 0.5 μg/well of the fusion protein, glutathione S-transferase-FK506 binding protein (GST-FKBP), in 100 μl of 0.02M HEPES buffer, pH 7.4. Plates were incubated overnight at 4° C. Plates were washed 3 × with HEPES buffer. Well surfaces were blocked by the addition of 1% bovine serum albumin fraction V (BSA) in HEPES buffer ([…]). Plates were incubated for 1 hour at ambient temperature. Plates were washed three times. Various concentrations of rapamycin were added to the compound of Example 3 (50 ng/ml) and 100 μl of the solutions were added to wells in triplicate. After incubation of the plates at ambient temperature followed by washing the plates with HEPES buffer, 100 μl of diluted avidin-horseradish peroxidase conjugate was added to each well. After incubation for 1 hour at ambient temperature and washing five times, 100 μl of tetramethylbenzidine substrate was added to each well. The plates were incubated for 30 minutes in the dark at ambient temperature. The reactions were stopped and the optical density was read at 450 nm.

[10] = test system: IgE-like antibodies; conditions: Martel et al.; cited from earlier work
[11] = test system: adjuvant arthritis model; conditions: model for rheumatoid arthritis; Martel et al.; cited from earlier work

Sequence of glutathione S-transferase-FK506 binding protein (GST-FKBP) (P62942 2-108): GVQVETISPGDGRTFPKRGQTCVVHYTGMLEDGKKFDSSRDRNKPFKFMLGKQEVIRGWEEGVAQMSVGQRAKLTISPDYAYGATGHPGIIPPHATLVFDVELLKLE

`CO[C@H]1C[C@@H]2CC[C@@H](C)[C@@](O)(O2)C(=O)C(=O)N2CCCC[C@H]2C(=O)O[C@H]([C@H](C)C[C@@H]2CC[C@@H](OC(=O)CNC(=O)CCCC[C@@H]3SC[C@@H]4NC(=O)N[C@@H]43)[C@H](OC)C2)CC(=O)[C@H](C)/C=C(\C)[C@@H](O)[C@@H](OC)C(=O)[C@H](C)C[C@H](C)/C=C/C=C/C=C/1C` [Example 3, Rapamycin 42-ester with glycylbiotin] showed a resonance units bound [1] of 115 resonance units, an inhibition at 0.0001 µM ([2]; first evaluation) of 98% and an inhibition at 0.001 µM ([2]; first evaluation) of 46%. The inhibition at 0.003 µM ([2]; first evaluation) was 65%, the inhibition at 0.01 µM ([2]; first evaluation) was 95% and the inhibition at 1 µM ([2]; first evaluation) was 99%. For the same molecule, the IC50 ([2]; first evaluation, read-out: IC50) was 2.8 nM, the inhibition at 0.0001 µM ([2]; second evaluation) was 94% and the inhibition at 0.001 µM ([2]; second evaluation) was 16%. For the same molecule, the inhibition at 0.003 µM ([2]; second evaluation) was 51%, the inhibition at 0.01 µM ([2]; second evaluation) was 88% and the inhibition at 1 µM ([2]; second evaluation) was 96%. The IC50 ([2]; second evaluation, read-out: IC50) was 1.3 nM, the “ratio compared to rapamycin” value ([2]; first evaluation) was 2.39 and the “ratio compared to rapamycin” value ([2]; second evaluation) was 0.63.

For `CO[C@H]1C[C@@H]2CC[C@@H](C)[C@@](O)(O2)C(=O)C(=O)N2CCCC[C@H]2C(=O)O[C@H]([C@H](C)C[C@@H]2CC[C@@H](OC(=O)CCC(=O)NCC(=O)Nc3ccc4c(c3)C(=O)OC43c4ccc(O)cc4Oc4cc(O)ccc43)[C@H](OC)C2)CC(=O)[C@H](C)/C=C(\C)[C@@H](O)[C@@H](OC)C(=O)[C@H](C)C[C@H](C)/C=C/C=C/C=C/1C` [rapamycin 42-ester with succinic acid conjugate with 5-glycinylfluoresceinamine], the polarization ([3]; tracer 10 nM, excess of RAP-42-OVAF2#1MoAb) was 84 mP, the polarization ([4]; tracer 10 nM, after addition of an excess of FKBP12) was 195 mP and the polarization ([5]; tracer alone, 10 nM, 100 mM sodium phosphate pH 7.5) was 77 mP.

With `CO[C@H]1C[C@@H]2CC[C@@H](C)[C@@](O)(O2)C(=O)C(=O)N2CCCC[C@H]2C(=O)O[C@H]([C@H](C)C[C@@H]2CC[C@@H](O)[C@H](OC)C2)CC(=O)[C@H](C)/C=C(\C)[C@@H](O)[C@@H](OC)C(=O)[C@H](C)C[C@H](C)/C=C/C=C/C=C/1C` [rapamycin] the IC50 ([2]; first evaluation) was 6.7 nM, the IC50 ([2]; second evaluation) was 0.8 nM and the “% INHIBITION of binding of the compound of Example 3” value (shortened to “% INHIBITION”) ([6]; rapamycin 0.005 μM) was 6.6%. For the same molecule, the OD ([6]; rapamycin 0.005 μM) was 1.866, the “% INHIBITION” value ([6]; rapamycin 0.05 μM) was 7.8% and the OD ([6]; rapamycin 0.05 μM) was 1.842. For the same molecule, the “% INHIBITION” value ([6]; rapamycin 0.5 μM) was 30.1%, the OD ([6]; rapamycin 0.5 μM) was 1.419 and the “% INHIBITION” value ([6]; rapamycin 5 μM) was 67.6%. The OD ([6]; rapamycin 5 μM) was “.705”, the “effect in experimental allergic encephalomyelitis model” value [7] was “effective” and the “polarization, competition of the binding between the antibody and A3 tracer” value (“polarization, competition” for short) ([8]; after 38 min) was 121 mP. The “polarization, competition” value ([8]; at 3 min) was 155 mP, the “Optical Density” value ([9]; rapamycin 1.5625 ng/ml) was 2.6160 and the “Optical Density” value ([9]; rapamycin 3.125 ng/ml) was 2.3040. The “Optical Density” value ([9]; rapamycin 6.25 ng/ml) was 2.0557, the “Optical Density” value ([9]; rapamycin 12.5 ng/ml) was 1.3913 and the “Optical Density” value ([9]; rapamycin 25 ng/ml) was 0.7473. The “Optical Density” value ([9]; rapamycin 50 ng/ml) was 0.3573, the “Optical Density” value ([9]; rapamycin 100 ng/ml) was 0.2433 and the “Optical Density” value ([9]; rapamycin 200 ng/ml) was 0.2177. For the same molecule, the “inhibition of formation of IgE-like antibodies” value [10] was “effectively inhibited” and the “effect in adjuvant arthritis model” value [11] was “effective”.

With `CO[C@@H](C[C@@H]1CC[C@@H](C)[C@](O)(C(=O)C(=O)N2CCCC[C@H]2C(=O)O)O1)/C(C)=C/C=C/C=C/[C@@H](C)C[C@@H](C)C(=O)[C@H](OC)[C@H](O)/C(C)=C/[C@@H](C)C(=O)/C=C/[C@H](C)C[C@@H]1CC[C@@H](O)[C@H](OC)C1` [secorapamycin] the “polarization, competition” value ([8]; after 38 min) was 89 mP and the “polarization, competition” value ([8]; at 3 min) was 105 mP.

With “secorapamycin 42-ester with succinic acid conjugate with 5-fluoresceinamine [Example A3]” the polarization reading ([3]; A3 in presence of RAP-42-OVAF2#1MoAb) was 178 mP, the polarization reading ([4]; A3 in presence of FKBP12 (background levels)) was 79 mP and the “background reading (polarization)” value ([5]; A3 tracer alone) was 75 mP.
